Laboratory results from publication PMC3447335, “Evaluation of Pseudopteroxazole and Pseudopterosin Derivatives against Mycobacterium tuberculosis and Other Pathogens” (Marine Drugs, 2012).
In brackets after ≈: the same amount, converted by molar mass. Where two headings read alike, the source gives them in different places.

Legend:
M. tuberculosis H37Rv = tested on: M. tuberculosis H37Rv; parameters: method as in PMID 9145860; details: comparison values; cited from earlier work
[1] = tested on: M. tuberculosis H37Rv (ATCC 27294); assay: microbe, parasite or virus in culture; type: cell-based, Mycobacterium tuberculosis; details: for inhibition at 64 µg/mL / MIC: Mycobacterium tuberculosis; for inhibition at 64 µg/mL: % inhibition at 64 μg/mL, read-out: LORA % inh; for MIC: read-out: LORA MIC
[2] = tested on: M. tuberculosis H37Rv (ATCC 27294); assay: Microplate Alamar blue assay (MABA); type: cell-based, Mycobacterium tuberculosis; details: for MIC: Mycobacterium tuberculosis; for SI (Selectivity Index): (Vero Cell IC50)/(M. tuberculosis MIC)
Vero cells = assay: cells; details: Chlorocebus sabaeus; for IC50: read-out: Vero cell IC50; for cytotoxicity at 128 µg/mL: read-out: Vero cell (% inh)
MRSA = assay: Microbroth dilution antibiotic susceptibility assay; type: cell-based; details: Staphylococcus aureus, read-out: IC50 MRSA
[3] = tested on: M. smegmatis (ATCC 12051); assay: as above; type: cell-based; details: Mycolicibacterium smegmatis
[4] = tested on: M. diernhoferi (ATCC 19340); assay: as above; type: cell-based; details: Mycolicibacterium diernhoferi
VRE = assay: as above; type: cell-based, Enterococcus faecium; details: Enterococcus, read-out: IC50 VRE
[5] = non-replicating persistent model
[6] = M. tuberculosis H37Rv (ATCC 27294), replicating, read-out: MABA MIC
[7] = ATCC12051, microbroth dilution, read-out: MIC M. smegmatis
[8] = ATCC19340, microbroth dilution, read-out: MIC M. diernhoferi
[9] = wild-type M. tuberculosis H37Rv, Table 2 experiment, read-out: MABA MIC H37Rv

| Compound | inhibition at 64 µg/mL [1] | MIC [2, 6] | IC50 (Vero cells) | SI (Selectivity Index) [2] | MIC [3, 7] | MIC [4, 8] | further results |
| --- | --- | --- | --- | --- | --- | --- | --- |
| capreomycin | – | – | – | – | – | – | MIC of first and second line TB treatments (M. tuberculosis H37Rv): 0.94 to 3.7 µM |
| COC(=O)CCc1nc2c(C)c3c4c(c2o1)C(C)CCC4C(C)CC3C=C(C)C (stereo not shown) [Compound 30] | 99.1% | > 128 mg/L | 31 mg/L (≈ 78.4 µM) | – | – | – | MIC [1, 5]: 62 mg/L |
| CN[C@H](CC(C)C)C(=O)N[C@H]1C(=O)N[C@@H](CC(N)=O)C(=O)N[C@H]2C(=O)N[C@H]3C(=O)N[C@H](C(=O)N[C@H](C(=O)O)c4cc(O)cc(O)c4-c4cc3ccc4O)[C@H](O)c3ccc(c(Cl)c3)Oc3cc2cc(c3O[C@@H]2O[C@H](CO)[C@@H](O)[C@H](O)[C@H]2O[C@H]2C[C@](C)(N)[C@H](O)[C@H](C)O2)Oc2ccc(cc2Cl)[C@H]1O [Vancomycin, reference compound] | – | – | – | – | – | – | IC50 (MRSA): 1.23 mg/L (≈ 0.849 µM) |
| CC(C)=CC1CC(C)C2CCC(C)c3c2c1c(C)c1nc(Cc2ccccc2)oc31 (stereo not shown) [Compound 28] | 13.7% | > 128 mg/L | 82 mg/L (≈ 205 µM) | – | – | – | – |
| N[C@@H]1CON=C1O [cycloserine] | – | – | – | – | – | – | MIC of first and second line TB treatments (M. tuberculosis H37Rv): 122 to 490 µM |
| CC(C)=C[C@@H]1C[C@H](C)[C@H]2CC[C@H](C)c3c2c1c(C)c1ocnc31 [Compound 22, isopseudopteroxazole] | 100% | 14 mg/L | 52 mg/L (≈ 168 µM) | 3.6 | – | – | MIC [1, 5]: 44 mg/L |
| CC(C)=CC1CC(C)C2CCC(C)c3c2c1c(C)c1nc(C)oc31 (stereo not shown) [Compound 25] | 99% | 15 mg/L | 12 mg/L (≈ 37.1 µM) | 0.8 | – | – | – |
| CSCCc1nc2c(C)c3c4c(c2o1)C(C)CCC4C(C)CC3C=C(C)C (stereo not shown) [Compound 27] | 90% | 107 mg/L | > 128 mg/L | >1.2 | – | – | cytotoxicity at 128 µg/mL (Vero cells): 0% |
| COc1ccccc1-c1nc2c(C)c3c4c(c2o1)C(C)CCC4C(C)CC3C=C(C)C (stereo not shown) [Compound 23] | 83.3% | > 82 mg/L | 34 mg/L (≈ 81.8 µM) | – | – | – | – |
| CCCCCOc1c(C)c2c3c(c1O)[C@@H](C)CC[C@@H]3[C@@H](C)C[C@H]2C=C(C)C [Compound 8, 10-Pentoxy-pseudopterosin G–J Aglycone] | 35.1% | > 128 mg/L | 49 mg/L (≈ 132 µM) | – | > 128 mg/L | > 128 mg/L | IC50 (MRSA; microbroth dilution): 47 mg/L (≈ 127 µM); IC50 (VRE; microbroth dilution): 22 mg/L (≈ 59.4 µM) |
| CO[C@H]1/C=C/O[C@@]2(C)Oc3c(C)c(O)c4c(O)c(c(/C=N/N5CCN(C)CC5)c(O)c4c3C2=O)NC(=O)/C(C)=C\C=C\[C@H](C)[C@H](O)[C@@H](C)[C@@H](O)[C@@H](C)[C@H](OC(C)=O)[C@@H]1C [Rifampin, reference compound] | – | 0.04 mg/L | – | – | 4 mg/L (≈ 4.86 µM) | 4 mg/L (≈ 4.86 µM) | MIC [1]: 0.93 mg/L; MIC [2, 9]: 0.03 mg/L; IC50 (VRE; microbroth dilution): 0.88 mg/L (≈ 1.07 µM) |
| CC(C)=C[C@@H]1C[C@H](C)[C@H]2CC[C@H](C)c3c(O)c(O)c(C)c1c32 [Compound 4, pseudopterosin G–J aglycone] | 53.1% | > 128 mg/L | 50 mg/L (≈ 166 µM) | – | 8 mg/L (≈ 26.6 µM) | 8 mg/L (≈ 26.6 µM) | IC50 (MRSA; microbroth dilution): 88 mg/L (≈ 293 µM); IC50 (VRE; microbroth dilution): > 128 mg/L |
| CC(C)=CC1CC(C)C2CCC(C)c3c2c1c(C)c1nc(-c2ccc(F)cc2)oc31 (stereo not shown) [Compound 24] | -19% | > 31 mg/L | > 31 mg/L | – | – | – | cytotoxicity at 128 µg/mL (Vero cells): 0% |
| COc1c(O)c(OC)c(CC=C(C)C)c(CC=C(C)C)c1CC=C(C)C [Compound 16, 2,6-Dimethoxy-3,4,5-tris(3-methylbut-2-enyl)phenol] | 79.7% | 56 mg/L | > 128 mg/L | >2.3 | > 128 mg/L | 8 mg/L (≈ 22.3 µM) | IC50 (MRSA): > 128 mg/L; cytotoxicity at 128 µg/mL (Vero cells): 29%; IC50 (VRE): 3 mg/L (≈ 8.37 µM) |
| COc1c(C)c2c3c(c1OS(=O)(=O)C(F)(F)F)[C@@H](C)CC[C@@H]3[C@@H](C)C[C@H]2C=C(C)C [Compound 11, 9-Trifluoromethylsulfonyloxy-10-methoxy-pseudopterosin G–J Aglycone] | 37.5% | > 128 mg/L | 51 mg/L (≈ 114 µM) | – | > 64 mg/L | > 64 mg/L | IC50 (MRSA; microbroth dilution): > 128 mg/L; IC50 (VRE; microbroth dilution): > 128 mg/L |
| COc1cc(CC=C(C)C)c(CC=C(C)C)c(OC)c1O [Compound 15, 2,6-Dimethoxy-3,4-bis(3-methylbut-2-enyl)phenol] | 99.7% | 59 mg/L | 64 mg/L (≈ 220 µM) | 1.1 | 8 mg/L (≈ 27.5 µM) | 8 mg/L (≈ 27.5 µM) | MIC [1, 5]: 58 mg/L; IC50 (MRSA): 20 mg/L (≈ 68.9 µM); IC50 (VRE): 3 mg/L (≈ 10.3 µM) |

| Compound | inhibition at 64 µg/mL [1] | MIC [2, 6] | IC50 (Vero cells) | SI (Selectivity Index) [2] | MIC [3, 7] | MIC [4, 8] | further results |
| --- | --- | --- | --- | --- | --- | --- | --- |
| O=[N+]([O-])c1cn2c(n1)OC[C@@H](OCc1ccc(OC(F)(F)F)cc1)C2 [PA824, reference compound] | – | 0.15 mg/L | – | – | – | – | – |
| CC(C)=C[C@@H]1C[C@H](C)[C@H]2CC[C@H](C)c3c2c1c(C)c1nccnc31 [Compound 5, Pseudopteroquinoxaline] | 99.9% | 29 mg/L | 22 mg/L (≈ 68.6 µM) | 0.8 | 16 mg/L (≈ 49.9 µM) | 64 mg/L (≈ 200 µM) | IC50 (MRSA; microbroth dilution): > 128 mg/L; IC50 (VRE; microbroth dilution): > 128 mg/L |
| CCC(C)c1nc2c(C)c3c4c(c2o1)C(C)CCC4C(C)CC3C=C(C)C (stereo not shown) [Compound 26] | 59.1% | > 103 mg/L | 73 mg/L (≈ 200 µM) | – | – | – | – |
| COc1ccc(CC=C(C)C)c(OC)c1O[C@@H]1O[C@H](CO)[C@H](O)[C@H](O)[C@H]1O [Compound 20, 2,6-Dimethoxy-3-(3-methylbut-2-enyl)phenol-β-D-galactopyranoside] | -24.8% | > 128 mg/L | 82 mg/L (≈ 213 µM) | – | > 128 mg/L | > 128 mg/L | IC50 (MRSA): > 128 mg/L; IC50 (VRE): > 128 mg/L |
| CC(C)=CC1CC(C)C2CCC(C)c3c2c1c(C)c1nc(CCC(N)=O)oc31 (stereo not shown) [Compound 32] | 99% | 29 mg/L | 54 mg/L (≈ 142 µM) | 1.9 | – | – | – |
| NNC(=O)c1ccncc1 [Isoniazid] | – | 0.03 mg/L | – | – | – | – | LORA (% inh) in MIC column ([1]; % inhibition in parentheses, where the MIC exceeds the stated concentration): 65%; MIC [1, 5]: > 128 mg/L; MIC [2, 9]: 0.03 mg/L |
| COc1c(C)c2c3c(c1O)[C@@H](C)CC[C@@H]3[C@@H](C)C[C@H]2C=C(C)C [Compound 9] | 99.7% | 30 mg/L | > 128 mg/L | >4.3 | 4 mg/L (≈ 12.7 µM) | 4 mg/L (≈ 12.7 µM) | MIC [1, 5]: 52 mg/L; IC50 (MRSA; microbroth dilution): 9 mg/L (≈ 28.6 µM); cytotoxicity at 128 µg/mL (Vero cells): 26%; IC50 (VRE; microbroth dilution): 12 mg/L (≈ 38.2 µM) |
| COc1ccc(CC=C(C)C)c(OC)c1O [Compound 14, 2,6-Dimethoxy-3-(3-methylbut-2-enyl)phenol] | -4.7% | > 128 mg/L | 44 mg/L (≈ 198 µM) | – | 128 mg/L (≈ 576 µM) | 64 mg/L (≈ 288 µM) | IC50 (MRSA): > 128 mg/L; IC50 (VRE): > 128 mg/L |
| CC(C)=CC1CC(C)C2CCC(C)c3c2c1c(C)c1nc(CCC(=O)O)oc31 (stereo not shown) [Compound 31] | 99.1% | 95 mg/L | 102 mg/L (≈ 267 µM) | 1.1 | – | – | – |
| COC(C)(C)C[C@@H]1C[C@H](C)[C@H]2CC[C@H](C)c3c2c1c(C)c1nccnc31 [Compound 6, 14,15-Dihydro-15-methoxy-pseudopteroquinoxaline] | 99.9% | 84 mg/L | 15 mg/L (≈ 42.6 µM) | 0.2 | – | – | – |
| CC(C)=CC1CC(C)C2CCC(C)c3c2c1c(C)c1nc(C(C)O)oc31 (stereo not shown) [Compound 29] | 99.8% | 53 mg/L | 24 mg/L (≈ 67.9 µM) | 0.5 | – | – | – |
| CC(C)=CC1CC(C)C2CCC(C)c3c2c1c(C)c1nc(Cc2cnc[nH]2)oc31 (stereo not shown) [7a/7b] | 92.5% | 13 mg/L | > 128 mg/L | >9.7 | 4 mg/L (≈ 10.3 µM) | 2 mg/L (≈ 5.13 µM) | MIC [1, 5]: 12 mg/L; MIC ([1]; value given in μM): 31 µM; IC50 (MRSA): 3 mg/L (≈ 7.7 µM); MIC ([2]; MABA, value given in μM, read-out: MIC against M. tuberculosis H37Rv): 34 µM; cytotoxicity at 128 µg/mL (Vero cells): 4%; IC50 (VRE): 7.5 mg/L (≈ 19.3 µM) |
| COc1c(C)c2c3c(c1OC(=O)N(C)C)[C@@H](C)CC[C@@H]3[C@@H](C)C[C@H]2C=C(C)C [Compound 12, 9-Dimethylcarbamoyloxy-10-methoxy-pseudopterosin G–J Aglycone] | 80% | > 128 mg/L | > 128 mg/L | – | – | – | MIC ([3]; ATCC12051, read-out: MIC M. smegmatis): 64 mg/L (≈ 166 µM); MIC ([4]; ATCC19340, read-out: MIC M. diernhoferi): > 64 mg/L; IC50 (MRSA): > 128 mg/L; cytotoxicity at 128 µg/mL (Vero cells): 0%; IC50 (VRE): 70 mg/L (≈ 182 µM) |
| COc1c(C)c2c3c(c1OC)[C@@H](C)CC[C@@H]3[C@@H](C)C[C@H]2C=C(C)C [Compound 10, 9,10-Dimethoxy-pseudopterosin G–J Aglycone] | 77.5% | > 128 mg/L | 51 mg/L (≈ 155 µM) | – | > 64 mg/L | > 64 mg/L | IC50 (MRSA; microbroth dilution): > 128 mg/L; IC50 (VRE; microbroth dilution): 25 mg/L (≈ 76.1 µM) |
| CC(C)=CC1CC(C)C2CCC(C)c3c2c1c(C)c1nc(CC(N)=O)oc31 (stereo not shown) [Compound 33] | 97.1% | 59 mg/L | 45 mg/L (≈ 123 µM) | 0.8 | – | – | – |
